Assay results taken from US20240319200A1, “Covalent Molecular Glue Stabilizers and Platform” (The Regents of the University of California, priority 2021, published 2024).

Tests used:
[1] = system: SFN / TAZ phosphopeptide substrate; assay: Fluorescence polarization, 14-3-3 SFN with TAZ phosphopeptide substrate; format: binding; conditions: SFN with C38 and C96 mutated to serines
[2] = system: Hippo pathway transcription factor luciferase reporter in MCF7 breast cancer cells; assay: Hippo pathway transcription factor luciferase reporter activity; format: cell-based
Excerpt: (§1) […]. […] […]. […] […].

[3] = system: 14-3-3 SFN protein / ERα phosphopeptide substrate; assay: Fluorescence polarization, 14-3-3 SFN with ERα phosphopeptide substrate; format: binding; conditions: SFN with C38 and C96 mutated to serines
Description: We performed a fluorescence polarization screen with our cysteine-reactive covalent ligand libraries to identify 14-3-3 covalent molecular glues that enhance interactions of SFN with phosphopeptide 14-3-3 interacting sequences ERα. This screen was performed with recombinant pure 14-3-3 SFN protein and a 5-FAM- or rhodamine-conjugated ERα phosphopeptide substrate looking for cysteine-reactive covalent ligands that would stabilize 14-3-3 interactions with the phosphopeptide substrate.

[4] = system: ERα transcription factor luciferase reporter in T47D breast cancer cells; assay: ERα luciferase reporter activity; format: cell-based
Excerpt: as §1

[5] = SFN knockdown, breast cancer cells

## C=CC(=O)N1CCC2(CCN(Cc3ccccc3)C2)C1 (stereo not drawn) [EN171]
[1]
  EN171-mediated stabilization of 14-3-3 interactions with TAZ: significantly attenuated
[2]; MCF7 breast cancer cells
  Inhibition of Hippo pathway transcription factor luciferase reporter activity: dose-responsive inhibition
[2]; [5]
  EN171-mediated inhibition of Hippo pathway transcriptional activity: significantly attenuated
[3]
  EN171-mediated stabilization of 14-3-3 interactions with ERα: significantly attenuated
[4]; [5]
  EN171-mediated inhibition of ERα transcriptional activity: significantly attenuated
[4]; T47D breast cancer cells
  Inhibition of ERα luciferase reporter activity: dose-responsive inhibition
